For two compounds, inhibition and IC50 results are on record in article PMC6025358 (Marine Drugs, 2018).

A word on the inhibition: it is the change of the read-out against control, counted positive when it falls. Broadly, the IC50 is the concentration needed to halve the response being measured. Read a high IC50 as weaker potency in that assay.

Molecules are shown by their SMILES.

For this assay, the target named is rat α3β4 nAChR (Rattus norvegicus, UniProt P04757+P12392). The assay can be described thus: cell-based. The note with it: for inhibition at 0.1 µM / inhibition at 1 µM: read-out: Inhibition of ACh-evoked α3β4 nAChR-mediated current.
Chain of rat α3β4 nAChR (P04757 26-499 limits assumed): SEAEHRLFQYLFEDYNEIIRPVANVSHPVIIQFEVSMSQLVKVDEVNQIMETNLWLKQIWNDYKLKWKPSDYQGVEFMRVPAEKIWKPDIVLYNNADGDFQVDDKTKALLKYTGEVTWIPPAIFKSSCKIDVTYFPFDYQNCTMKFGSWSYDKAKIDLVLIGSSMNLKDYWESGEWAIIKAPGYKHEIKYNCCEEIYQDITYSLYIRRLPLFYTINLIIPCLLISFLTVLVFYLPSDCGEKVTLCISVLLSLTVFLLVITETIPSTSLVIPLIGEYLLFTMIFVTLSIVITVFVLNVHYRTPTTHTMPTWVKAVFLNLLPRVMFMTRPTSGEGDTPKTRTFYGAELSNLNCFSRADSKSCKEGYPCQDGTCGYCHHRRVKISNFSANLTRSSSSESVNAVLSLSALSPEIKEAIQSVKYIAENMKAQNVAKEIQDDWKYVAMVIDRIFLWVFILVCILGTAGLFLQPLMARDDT
Chain of rat α3β4 nAChR (P12392 21-495 limits assumed): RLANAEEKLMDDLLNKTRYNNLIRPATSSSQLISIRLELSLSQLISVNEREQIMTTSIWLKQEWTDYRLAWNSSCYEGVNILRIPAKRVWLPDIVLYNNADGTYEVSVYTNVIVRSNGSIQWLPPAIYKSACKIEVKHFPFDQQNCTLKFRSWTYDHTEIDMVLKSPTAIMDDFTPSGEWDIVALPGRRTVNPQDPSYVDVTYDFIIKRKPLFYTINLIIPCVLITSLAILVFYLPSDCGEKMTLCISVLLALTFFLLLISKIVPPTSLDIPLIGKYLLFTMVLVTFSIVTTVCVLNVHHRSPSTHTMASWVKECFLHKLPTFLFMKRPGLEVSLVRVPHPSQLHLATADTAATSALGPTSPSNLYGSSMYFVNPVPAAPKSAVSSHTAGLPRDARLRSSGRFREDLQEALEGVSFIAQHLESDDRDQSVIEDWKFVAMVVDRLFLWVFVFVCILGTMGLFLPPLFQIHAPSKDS

With `CC[C@H](C)[C@@H]1NC(=O)[C@@H]2CCCN2C(=O)[C@H](CO)NC(=O)[C@H](CCSC)NC(=O)[C@H](C)NC(=O)[C@H](CO)NC(=O)[C@@H]2CSSC[C@H](NC(=O)CN)C(=O)N[C@@H](CSSC[C@@H](C(N)=O)NC1=O)C(=O)N[C@@H](CO)C(=O)N[C@@H](Cc1c[nH]cn1)C(=O)N1CCC[C@H]1C(=O)N[C@@H](C(C)C)C(=O)N2` [TxID], the inhibition at 0.1 µM is ~80% and the inhibition at 1 µM is ~100%.
For the compound `CC[C@H](C)[C@@H]1NC(=O)[C@@H]2CCCN2C(=O)[C@H](CO)NC(=O)[C@H](CC[S+](C)[O-])NC(=O)[C@H](C)NC(=O)[C@H](CO)NC(=O)[C@@H]2CSSC[C@H](NC(=O)CN)C(=O)N[C@@H](CSSC[C@@H](C(N)=O)NC1=O)C(=O)N[C@@H](CO)C(=O)N[C@@H](Cc1c[nH]cn1)C(=O)N1CCC[C@H]1C(=O)N[C@@H](C(C)C)C(=O)N2` (some centres unmarked) [[MO]TxID], the IC50 came to 245 nM, the inhibition at 0.1 µM worked out at 25% and the inhibition at 1 µM is 72%.
